Experimental data published in patent US5726041A, “Method for detecting a receptor-ligand complex using a cytochrome P450 reporter gene” (priority 1996, dated 1998).
Read-outs that look alike come from different tables or passages of the source.

Tests used:
[1] = biological target: T1, hPPAR (Homo sapiens, UniProt Q07869); assay: cell-based; conditions: 1.1 mM clofibrate vs basal
T1 sequence (Q07869 1-468): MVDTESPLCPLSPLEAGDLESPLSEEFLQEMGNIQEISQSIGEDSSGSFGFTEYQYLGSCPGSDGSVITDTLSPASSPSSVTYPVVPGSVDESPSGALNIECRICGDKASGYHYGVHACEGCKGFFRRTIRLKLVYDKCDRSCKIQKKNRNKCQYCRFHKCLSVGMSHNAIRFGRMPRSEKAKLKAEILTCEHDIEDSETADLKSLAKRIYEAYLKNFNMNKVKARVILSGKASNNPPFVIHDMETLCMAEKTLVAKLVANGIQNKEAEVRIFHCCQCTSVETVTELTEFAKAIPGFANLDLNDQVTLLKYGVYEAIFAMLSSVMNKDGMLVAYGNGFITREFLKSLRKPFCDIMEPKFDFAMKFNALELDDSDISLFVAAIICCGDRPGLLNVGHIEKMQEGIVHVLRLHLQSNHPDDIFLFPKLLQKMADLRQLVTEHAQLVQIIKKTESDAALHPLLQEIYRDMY
Description: (§1) MMTV-LTR1 is native, MMTV-LTR2 is minus CpG, MMTV-LTR3 is TATA only. Orientation is relative to reporter. CH activity is pmole per 10^6 cell min. Assuming the cells double every 24 hours, the maximium cell density is 2×10^6 cells per ml, using the log average cell concentration for each day of exposure. Earliest post fusion-values were used. […] It is merely a concentration in the monotonic portion of the dose response curve which has been used consistently in many experiments.

[2] = tested on: AHH-1 TK± cells
Excerpt: The reporter gene expression as reported in previous tables and figures is expressed as pmoles product/well in a 96 well microtiter plate as measured fluorometrically. […] A toxicity curve reflecting the relative number of cells/well present at the end of treatment was obtained as a function of chemical concentration. […] This suppression can be corrected for by determining the cell concentration in the well or by determining the suppression of CH activity in a cell line which constitutively expresses the reporter.

[3] = biological target: T2, mouse PPARα (Mus musculus, UniProt P23204); assay: Native PPARα / PPRE CYP2A6 reporter, coumarin 7-hydroxylase induction; conditions: for fold induction at 1100 µM: 1.1 mM clofibrate vs basal; for maximal fold induction: read-out: Maximum Fold Induction, clofibrate-induced CYP2A6 activity
T2 sequence (P23204 1-468): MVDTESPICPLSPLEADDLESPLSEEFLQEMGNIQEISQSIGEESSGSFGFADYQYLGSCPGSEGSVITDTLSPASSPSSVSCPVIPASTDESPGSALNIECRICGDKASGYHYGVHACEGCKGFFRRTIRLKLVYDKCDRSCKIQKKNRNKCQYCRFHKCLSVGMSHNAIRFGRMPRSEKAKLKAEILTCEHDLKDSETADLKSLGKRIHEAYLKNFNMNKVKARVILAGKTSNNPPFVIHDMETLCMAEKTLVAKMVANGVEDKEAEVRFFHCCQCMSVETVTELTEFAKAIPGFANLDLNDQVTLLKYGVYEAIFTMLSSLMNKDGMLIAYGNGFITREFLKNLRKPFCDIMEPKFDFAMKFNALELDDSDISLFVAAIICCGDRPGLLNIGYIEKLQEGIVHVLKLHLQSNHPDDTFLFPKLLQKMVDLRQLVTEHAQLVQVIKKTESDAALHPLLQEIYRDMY
Description: as §1
The comparison was performed by incubating 0.2 ml cells for 3 days in the wells of a microtiter plate at an initial cell concentration of 5×10^5 cells per ml in the presence of increasing amounts of inducer and 50 uM coumarin.
(§2) In this test we used an initial cell concentration of 2 million cells/ml contained in 0.2 ml culture medium per well of a 96 well microtiter plate. Coumarin (0.05 mM) and clofibrate (concentration was an experimental variable) were added at the beginning of the incubation time. Cells were incubated for 3 days and the 7-hydroxycoumarin content in the wells was analyzed by fluorescence with excitation at 360 nm and emission at 460 nm using a Cytofluor 2350 (Millipore). […] The elevation in pH increases 7-hydroxycoumarin fluorescence by increasing the proportion of the fluorochrome which is ionized. Quantitation was achieved by comparison to a 7-hydroxycoumarin standard curve.
The ACO-PPRE constructs were centrifuged and resuspended at a density of 2 million cells per milliliter in RPMI media with 9% horse serum. One hundred microliters of the cell suspension was distributed into a total of four rows, two rows being at the opposite end of a 96 well microtiter plate. One set was labeled as clofibrate and the other set was labeled as the blank. Clofibrate was then added at concentration of 3 mM, 2 mM, 1 mM, 0.5 mM & 0 mM to the appropriate wells. Stock concentration of clofibrate was 50 mM in 75 mM NaOH. One hundred microliters of media containing 100 micromolar coumarin was then added to the clofibrate containing wells. The negative control contained cell suspension and 100 uM coumarin only. The plates were placed at […] for three days. In a distinct set of wells, one hundred microliters of hydroxy-coumarin standard was placed in two rows The concentrations are in units of pmoles and the values are: 1250, 625, 313, 156, 78, 39, 19.5 & 0. At the end of the three day incubation period, one hundred microliters of media containing 100 uM coumarin was added to the wells labeled as blank. Next 0.1M Tris pH 9.0 was distributed to the contents of each well. Fluorescence was analyzed with a cytofluor 2350 (Millipore) with excitation at 360 nm and emission at 460 nm (both filters with a 40 nm bandwidth). The net fluorence was calculated by subtracting the fluorescence of the blank wells from the fluorescence of the test wells for each clofibrate concentration. Conversion to pmole product per well was accomplished by comparison to the fluorescence of the standards. The responsiveness of the different constructs to clofibrate induction was measured immediately after viable, hygromycin resistant cells were obtained and periodically thereafter in order to evaluate the stability of the system. The data were graphed as the fold induction relative to the without clofibrate control incubation. This is a measure of the responsiveness of the system and corrects for differences in the negative control values for the different reporter constructs.

[4] = tested on: PPARα/GR chimeric receptors
Description: (§3) Cells containing chimeric receptors for the rat, mouse and human PPARα ligand binding domain and rat GR DNA binding domain, as well as control cells, were examined for CH induction by clofibrate in the presence of LPS and spironolactone during clofibrate treatment. Incubations contained 5 ug/ml E. coli lipopolysaccharide and 10 uM spironolactone and were uncorrected for cell progression. Incubations were performed under the same conditions as described above. […] Cells were grown in a volume of 0.2 ml in the wells of a 96 well microtiter plate from an initial cell density of 5×10^5 cells per ml. […] The T194, T194/T144 and T194/EH#7 cell lines contain the mouse PPARα cDNA.

[5] = tested on: reporter construct without PPARα; assay: CYP2A6 reporter in control cells without PPARα or chimeric receptor; conditions: for fold induction at 1100 µM: Homo sapiens, 1.1 mM clofibrate vs basal
Description: as §3, §1
The above-described assay conditions were used and the results were normalized to the respective basal expression levels.
as §2

## CCOC(=O)C(C)(C)Oc1ccc(Cl)cc1 [clofibrate]
[1]; read-out: Coumarin Hydroxylase Activity Induced (Fold), cell line T248 (HSVtk 3'-5' hPPAR; HSVtk-OCT, JCO, HSVtkL15)
  fold induction at 1100 µM: 0.9
[1]; read-out: Coumarin Hydroxylase Activity Induced (Fold), cell line T249 (HSVtk 3'-5' hPPAR; HSVtk-OCT, JCO, HSVtkL15)
  fold induction at 1100 µM: 1.1
[2]
  difference in toxicity among cell lines: No differences in toxicity
  toxicity to the cells: toxic
[3]
  CYP2A6-catalyzed coumarin 7-hydroxylase activity upon treatment of the cells: concentration dependent increase
  clofibrate-induced activity relative to background levels: 3 to 10 times
  fold induction after growth in exponential cell culture: about 2 fold
  fold induction, initial: 4 to 6 fold
  increase in CYP2A6 expression after exposure to clofibrate: greater than 10 fold
  potency rank on a molar basis: then clofibrate
  ranking of chemicals of known ability to induce peroxisome proliferation: correctly rank
  reporter gene expression, concentration response: concentration-dependent increases
  signal-to-noise ratio: about 10
[3]; read-out: Coumarin Hydroxylase Activity Induced (Fold), cell line 7.10/T225, receptor orientation 3'-5' (HSVtk mPPAR; SV40, JCO, HSVtk#7)
  fold induction at 1100 µM: 0.9
[3]; read-out: Coumarin Hydroxylase Activity Induced (Fold), cell line 7.3/T225, receptor orientation 3'-5' (HSVtk mPPAR; SV40, JCO, HSVtk#7)
  fold induction at 1100 µM: 0.9
[3]; read-out: Coumarin Hydroxylase Activity Induced (Fold), cell line 7.3/T225, receptor orientation 5'-3' (HSVtk mPPAR; SV40, JCO, HSVtk#7)
  fold induction at 1100 µM: 1.5
[3]; read-out: Coumarin Hydroxylase Activity Induced (Fold), cell line T194 (SV40 3'-5' mPPAR; HSVtk-OCT, ACO, HSVtkL15)
  fold induction at 1100 µM: 1.5
[3]; read-out: Coumarin Hydroxylase Activity Induced (Fold), cell line T194/HSVtk#7 (SV40 3'-5' mPPAR; SV40, ACO, HSVtk#7)
  fold induction at 1100 µM: 3.3
[3]; read-out: Coumarin Hydroxylase Activity Induced (Fold), cell line T194/T144 (SV40 3'-5' mPPAR; SV40, ACO, MMTV-LTR3)
  fold induction at 1100 µM: 1.2
[3]; read-out: Coumarin Hydroxylase Activity Induced (Fold), cell line T247 (HSVtk 3'-5' mPPAR; HSVtk-OCT, JCO, HSVtkL15)
  fold induction at 1100 µM: 1.2
[3]; high copy number reporter, vector T144/194, clone 6-1, sequential independent determinations
  maximal fold induction: 1.57
[3]; high copy number reporter, vector T144/194, clone 6-3, sequential independent determinations
  maximal fold induction: 1.17
[3]; high copy number reporter, vector T144/194, clone 6-4
  maximal fold induction: 1.36
[3]; high copy number reporter, vector T194EH#7, clone 8-1
  maximal fold induction: 1.04
[3]; high copy number reporter, vector T194EH#7, clone 8-5, sequential independent determinations
  maximal fold induction: 1.27
[3]; high copy number reporter, vector T194EH#7, clone 8-11
  maximal fold induction: 1.15
[3]; high copy number reporter, vector T194EH#7, clone 8-12
  maximal fold induction: 1.21
[3]; high copy number reporter, vector T194EH#7, clone 8-14
  maximal fold induction: 1.15
[3]; vector T194EH#7, clone 8-6 (probably no functional high copy reporter)
  maximal fold induction: 3.44
[3]; vector T194EH#7, clone 8-16 (probably no functional high copy reporter)
  maximal fold induction: 3.73
[4]
  7-hydroxycoumarin production by cell lines containing the chimeras: very small but detectable, concentration-dependent increase
[5]
  7-hydroxycoumarin production in control cells: No increase
  clofibrate induction of CH activity in cells containing the reporter alone: did not respond
  induction of 7-hydroxycoumarin production in the absence of the PPARα: no induction
[5]; read-out: Coumarin Hydroxylase Activity Induced (Fold), cell line T192 (no receptor; HSVtk-OCT, ACO, HSVtkL15)
  fold induction at 1100 µM: 0.8
[5]; read-out: Coumarin Hydroxylase Activity Induced (Fold), cell line T192/T144 (no receptor; HSVtk-OCT, ACO, MMTV-LTR3)
  fold induction at 1100 µM: 0.7
[5]; read-out: Coumarin Hydroxylase Activity Induced (Fold), cell line T245 (no receptor; HSVtk-OCT, JCO, HSVtkL15)
  fold induction at 1100 µM: 0.9
